Data: US8933075B2, “Compounds useful as antiviral agents, compositions, and methods of use” (priority 2010, dated 2015)

These molecules were tested on A/Udorn/72 (H3N2) virus (assay: Plaque assay in MDCK cells: EC50 by reduction of plaque number). Settings: MDCK.
Type: cell-based, influenza virus
For COc1cc(OC)cc(-c2cc(CCCNC(=O)[C@H](Cc3ccc(OC(C)(C)C)cc3)NC(=O)OC(C)(C)C)c(/C=C3\SC(=S)N(C4CC5CCC4C5)C3=O)o2)c1 (stereo partly drawn) [Compound 160], the EC50 was less than 100 nM.
COc1cc(OC)cc(-c2cc(CCCNC(=O)[C@H](Cc3cn(C(c4ccccc4)(c4ccccc4)c4ccccc4)cn3)NC(=O)OCC3c4ccccc4-c4ccccc43)c(/C=C3\SC(=S)N(C4CC5CCC4C5)C3=O)o2)c1 (stereo partly drawn) [Compound 161] showed an EC50 of less than 100 nM.
COc1cc(OC)cc(-c2cc(CCCNC(=O)[C@@H](NC(=O)OC(C)(C)C)c3ccccc3)c(/C=C3\SC(=S)N(C4CC5CCC4C5)C3=O)o2)c1 (stereo partly drawn) [Compound 162] was tested, and the EC50 was less than 100 nM.
In the case of COc1cc(OC)cc(-c2cc(CCCNC(=O)[C@@H](N)CC(=O)O)c(/C=C3\SC(=S)N(C4CC5CCC4C5)C3=O)o2)c1 (stereo partly drawn) [Compound 169], the EC50 is reported as less than 100 nM.
With COc1cc(OC)cc(-c2cc(CCCNC(=O)[C@@H]3CCCN3)c(/C=C3\SC(=S)N(C4CC5CCC4C5)C3=O)o2)c1 (stereo partly drawn) [Compound 172] the EC50 was less than 100 nM.
With COc1cc(O)cc(-c2cc(CCCNC(=O)[C@@H](N)CCCN=C(N)N)c(/C=C3\SC(=S)N(C4CC5CCC4C5)C3=O)o2)c1 (stereo partly drawn) [Compound 175] the EC50 was less than 100 nM.
Molecule COC(=O)[C@@H](O)[C@H](O)C(=O)OCCCc1cc(-c2ccc(F)cc2)oc1/C=C1\SC(=S)N(C2CC3CCC2C3)C1=O (stereo partly drawn) [Compound 177] has an EC50 of less than 100 nM.
Work on O=C1/C(=C/c2oc(-c3ccc(Cl)cc3)cc2CCCN2CCOCC2)SC(=S)N1C1CC2CCC1C2 (stereo not drawn) [Compound 179] yielded an EC50 of less than 100 nM.
Work on O=C1/C(=C/c2oc(-c3ccc(F)cc3)cc2CCCN2CCOCC2)SC(=S)N1C1CC2CCC1C2 (stereo not drawn) [Compound 180] yielded an EC50 of less than 100 nM.
Molecule COc1cc(OC)cc(-c2cc(CCCN3CCOCC3)c(/C=C3\SC(=S)N(C4CC5CCC4C5)C3=O)o2)c1 (stereo not drawn) [Compound 181] has an EC50 of less than 100 nM.
COc1cc(OC)cc(-c2cc(CCCN3CCOCC3)c(/C=C3\SC(=S)N(C4C5CC6CC(C5)CC4C6)C3=O)o2)c1 (stereo not drawn) [Compound 182] was tested, and the EC50 was less than 100 nM.
O=C1/C(=C/c2oc(-c3ccc(F)cc3)cc2CCCN2CCOCC2)SC(=S)N1C1C2CC3CC(C2)CC1C3 (stereo not drawn) [Compound 183] was tested, and the EC50 was less than 100 nM.
For O=C1/C(=C/c2oc(-c3ccc(Cl)cc3)cc2CCCN2CCOCC2)SC(=S)N1C1C2CC3CC(C2)CC1C3 (stereo not drawn) [Compound 184], the EC50 was less than 100 nM.
In the case of O=C1/C(=C/c2oc(-c3ccc(F)cc3)cc2CCCN2CCNCC2)SC(=S)N1C1CC2CCC1C2 (stereo not drawn) [Compound 187], the EC50 is reported as less than 100 nM.
Work on COc1cc(OC)cc(-c2cc(CCCN3CCNCC3)c(/C=C3\SC(=S)N(C4CC5CCC4C5)C3=O)o2)c1 (stereo not drawn) [Compound 188] yielded an EC50 of less than 100 nM.
For O=C1/C(=C/c2oc(-c3ccc(F)cc3)cc2CCCN2CCNCC2)SC(=S)N1C1C2CC3CC(C2)CC1C3 (stereo not drawn) [Compound 189], the EC50 was less than 100 nM.
For COc1cc(OC)cc(-c2cc(CCCN3CCNCC3)c(/C=C3\SC(=S)N(C4C5CC6CC(C5)CC4C6)C3=O)o2)c1 (stereo not drawn) [Compound 190], the EC50 was less than 100 nM.
Molecule O=C1/C(=C/c2oc(-c3ccc(Cl)cc3)cc2CCCN2CCNCC2)SC(=S)N1C1C2CC3CC(C2)CC1C3 (stereo not drawn) [Compound 191] has an EC50 of less than 100 nM.
O=C1/C(=C/c2oc(-c3ccc(Cl)cc3)cc2CCCCCN2CCNCC2)SC(=S)N1C1CC2CCC1C2 (stereo not drawn) [Compound 192] gave an EC50 of less than 100 nM.
With N=C(N)NCCCc1cc(-c2ccc(Cl)cc2)oc1/C=C1\SC(=S)N(C2CC3CCC2C3)C1=O (stereo not drawn) [Compound 197] the EC50 was less than 100 nM.
With COc1cc(OC)cc(-c2cc(CCCn3cc(CO)nn3)c(/C=C3\SC(=S)N(C4C5CC6CC(C5)CC4C6)C3=O)o2)c1 (stereo not drawn) [Compound 199, (Z)-3-(adamantan-2-yl)-5-((5-(3′,5′-dimethoxyphenyl)-3-(3-(4′-(hydroxymethyl)-1H-1′,2′,3′-triazol-1-yl)-propyl)furan-2-yl)methylene)-2-thioxothiazolidin-4-one] the EC50 was less than 100 nM.
Work on COc1cc(OC)cc(-c2cc(CCCOC[C@@H](O)CO)c(/C=C3\SC(=S)N(C4CC5CCC4C5)C3=O)o2)c1 (stereo partly drawn) [Compound 202, (Z)-3-(bicyclo[2.2.1]heptan-2-yl)-5-((3-(3-((S)-2,3-dihydroxypropoxy)propyl)-5-(3′,5′-dimethoxy-phenyl)-furan-2-yl)methylene)-2-thioxothiazolidin-4-one] yielded an EC50 of less than 100 nM.
O=C1/C(=C/c2oc(-c3ccc(Cl)cc3)cc2CCCOC[C@@H](O)CO)SC(=S)N1C1CC2CCC1C2 (stereo partly drawn) [Compound 203, (Z)-3-(bicyclo[2.2.1]heptan-2-yl)-5-((3-(3-((S)-2,3-dihydroxypropoxy)propyl)-5-(4′-chlorophenyl)-furan-2-yl)methylene)-2-thioxothiazolidin-4-one] showed an EC50 of less than 100 nM.
O=C1/C(=C/c2oc(-c3ccc(F)cc3)cc2CCCOC[C@@H](O)CO)SC(=S)N1C1CC2CCC1C2 (stereo partly drawn) [Compound 204, (Z)-3-(bicyclo[2.2.1]heptan-2-yl)-5-((3-(3-((S)-2,3-dihydroxypropoxy)propyl)-5-(4′-fluorophenyl)-furan-2-yl)methylene)-2-thioxothiazolidin-4-one] was tested, and the EC50 was less than 100 nM.
O=C1/C(=C/c2coc3ccc(Br)cc3c2=O)SC(=S)N1C1CCC2CCCCC2C1 (stereo not drawn) [Compound 206] was tested, and the EC50 was less than 100 nM.
O=C1/C(=C/c2ccccc2)SC(=S)N1C1CC2CCC1C2 (stereo not drawn) [Compound 207] was tested, and the EC50 was 250 to 1000 nM.
O=C1/C(=C/c2ccco2)SC(=S)N1C1C2CC3CC(C2)CC1C3 (stereo not drawn) [Compound 209, (Z)-3-(adamantan-2-yl)-5-(furan-2-ylmethylene)-2-thioxothiazolidin-4-one] showed an EC50 of 250 to 1000 nM.
Work on O=C1/C(=C/c2coc3ccc(Br)cc3c2=O)SC(=S)N1C1C2CC3CC(C2)CC1C3 (stereo not drawn) [Compound 210, 3-adamantan-2-yl-5-(6-bromo-4-oxo-4H-chromen-3-ylmethylene)-2-thioxo-thiazolidin-4-one] yielded an EC50 of less than 100 nM.
O=C1/C(=C/c2csc3ccccc23)SC(=S)N1C1C2CC3CC(C2)CC1C3 (stereo not drawn) [Compound 211, 3-adamantan-2-yl-5-benzo[b]thiophen-3-ylmethylene-2-thioxo-thiazolidin-4-one] showed an EC50 of less than 100 nM.
In the case of O=C1/C(=C/c2ccc(Br)s2)SC(=S)N1C1C2CC3CC(C2)CC1C3 (stereo not drawn) [Compound 212], the EC50 is reported as less than 100 nM.
O=C1/C(=C/c2cc3cc(Br)ccc3[nH]2)SC(=S)N1C1C2CC3CC(C2)CC1C3 (stereo not drawn) [Compound 213, 3-adamantan-2-yl-5-(5-bromo-1H-indol-2-ylmethylene)-2-thioxo-thiazolidin-4-one] gave an EC50 of less than 100 nM.
O=C1/C(=C/c2cc3ccccc3s2)SC(=S)N1C1CC2CCC1C2 (stereo not drawn) [Compound 214, (Z)-5-(benzo[b]thiophen-2-ylmethylene)-3-(bicyclo[2.2.1]heptan-2-yl)-2-thioxothiazolidin-4-one] was tested, and the EC50 was less than 100 nM.
For O=C1/C(=C/c2c[nH]c3ccccc23)SC(=S)N1C1C2CC3CC(C2)CC1C3 (stereo not drawn) [Compound 215, 3-adamantan-2-yl-5-(1H-indol-3-ylmethylene)-2-thioxo-thiazolidin-4-one], the EC50 was less than 100 nM.
O=C1/C(=C/c2c[nH]c3ccccc23)SC(=S)N1C1CC2CCC1C2 (stereo not drawn) [Compound 216, (Z)-5-((1H-indol-3-yl)methylene)-3-(bicyclo[2.2.1]heptan-2-yl)-2-thioxothiazolidin-4-one] gave an EC50 of less than 100 nM.
With O=C1/C(=C/c2cc3ccccc3o2)SC(=S)N1C1CC2CCC1C2 (stereo not drawn) [Compound 217] the EC50 was less than 100 nM.
O=C1/C(=C/c2cc3ccccc3o2)SC(=S)N1C1C2CC3CC(C2)CC1C3 (stereo not drawn) [Compound 218, 3-adamantan-2-yl-5-benzofuran-2-ylmethylene-2-thioxo-thiazolidin-4-one] gave an EC50 of less than 100 nM.
